What is called residual activity is the activity still measured, relative to the control. A lower residual activity goes with little activity left.

SMILES strings stand for the structures.

Assay [1] has as its target T1, Ubiquitin thioesterase OTUB1 (Homo sapiens, UniProt Q96FW1). The experiment in a line: Inhibition of N-terminal His-6 tagged OTUB1 (40 to 271 residues) (unknown origin) expressed in Escherichia coli BL21 (DE3) cells at 10 nM using Ub-Rho measured after 0.5 to 3 hrs by fluorescence based Plate reader method relative to control. The following applies: time 0.5-3 hrs, values are per cent of control.

The target of assay [2] is T1, Ubiquitin thioesterase OTUB1. The experiment in a line: Inhibition of N-terminal His-6 tagged OTUB1 (40 to 271 residues) (unknown origin) expressed in Escherichia coli BL21 (DE3) cells at 100 nM using Ub-Rho measured after 0.5 to 3 hrs by fluorescence based Plate reader method relative to control. Particulars: time 0.5-3 hrs, values are per cent of control.
The target of assay [3] is T2, Ubiquitin carboxyl-terminal hydrolase 8 (Homo sapiens) (UniProt P40818).
T2 sequence (whole entry): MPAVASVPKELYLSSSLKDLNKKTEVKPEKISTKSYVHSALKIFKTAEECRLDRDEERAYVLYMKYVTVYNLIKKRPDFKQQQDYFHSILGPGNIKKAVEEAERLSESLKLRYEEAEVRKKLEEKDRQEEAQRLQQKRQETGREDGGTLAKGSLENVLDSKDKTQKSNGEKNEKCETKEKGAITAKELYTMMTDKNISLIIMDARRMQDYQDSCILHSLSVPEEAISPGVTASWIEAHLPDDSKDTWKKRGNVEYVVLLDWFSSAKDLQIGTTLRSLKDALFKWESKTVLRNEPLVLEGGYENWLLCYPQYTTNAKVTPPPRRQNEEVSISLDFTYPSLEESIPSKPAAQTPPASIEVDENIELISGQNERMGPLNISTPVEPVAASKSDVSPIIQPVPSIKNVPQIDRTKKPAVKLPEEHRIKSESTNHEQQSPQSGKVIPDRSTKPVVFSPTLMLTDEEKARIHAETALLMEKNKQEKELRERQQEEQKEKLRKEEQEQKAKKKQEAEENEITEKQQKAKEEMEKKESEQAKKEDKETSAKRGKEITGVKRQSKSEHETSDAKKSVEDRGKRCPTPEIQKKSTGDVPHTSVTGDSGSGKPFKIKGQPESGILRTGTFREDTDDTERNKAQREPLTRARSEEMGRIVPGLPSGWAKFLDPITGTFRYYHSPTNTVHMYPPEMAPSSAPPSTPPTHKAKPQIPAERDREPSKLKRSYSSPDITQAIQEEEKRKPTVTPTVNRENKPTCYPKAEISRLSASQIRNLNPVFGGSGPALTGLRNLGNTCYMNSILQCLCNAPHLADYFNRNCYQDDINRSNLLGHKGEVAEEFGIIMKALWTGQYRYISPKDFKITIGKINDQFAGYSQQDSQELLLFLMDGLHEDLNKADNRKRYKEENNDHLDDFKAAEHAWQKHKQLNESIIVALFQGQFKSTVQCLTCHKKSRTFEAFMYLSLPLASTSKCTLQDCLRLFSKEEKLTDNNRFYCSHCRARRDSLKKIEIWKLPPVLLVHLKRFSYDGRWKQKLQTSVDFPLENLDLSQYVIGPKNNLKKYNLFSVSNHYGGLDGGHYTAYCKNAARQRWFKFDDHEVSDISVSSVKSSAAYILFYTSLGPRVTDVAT
The experiment in a line: Inhibition of N-terminal His-6 tagged USP8 (734 to 1110 residues) (unknown origin) expressed in Escherichia coli BL21 (DE3) cells at 10 nM measured after 3 hrs by fluorescence based Plate reader method relative to control. The following applies: values are per cent of control.

The target in assay [4] is T2, Ubiquitin carboxyl-terminal hydrolase 8 (Homo sapiens). The experiment in a line: Inhibition of N-terminal His-6 tagged USP8 (734 to 1110 residues) (unknown origin) expressed in Escherichia coli BL21 (DE3) cells at 100 nM measured after 3 hrs by fluorescence based Plate reader method relative to control. The following applies: values are per cent of control.

T1 sequence (Q96FW1 whole entry, the tested form may be a part): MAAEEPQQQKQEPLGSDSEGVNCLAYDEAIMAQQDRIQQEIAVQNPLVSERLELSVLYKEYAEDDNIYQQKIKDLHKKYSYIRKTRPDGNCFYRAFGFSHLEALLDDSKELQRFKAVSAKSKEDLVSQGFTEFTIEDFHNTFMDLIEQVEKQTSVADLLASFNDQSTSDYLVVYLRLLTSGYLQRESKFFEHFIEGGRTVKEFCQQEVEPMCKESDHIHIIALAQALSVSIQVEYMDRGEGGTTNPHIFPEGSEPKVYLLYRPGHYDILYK

Take `COc1cc(-c2nc3c(o2)C(=O)c2ccccc2C3=O)ccc1C(F)(F)F`: the residual activity worked out at 71.4% in assay [1], 46.4% in assay [2], 58.5% in assay [3] and 42.7% in assay [4].

With `O=C1c2ccccc2C(=O)c2oc(-c3c(F)ccc(F)c3F)nc21`, the residual activity worked out at 40.7% in assay [1], 15.6% in assay [2], 36.6% in assay [3] and 21.9% in assay [4].

As to `O=C1c2ccccc2C(=O)c2oc(-c3cccc(Cl)c3)nc21`, the residual activity in assay [1] came to 60.4%; in assay [2], 34.7%; in assay [3], 66.3%; in assay [4], 49.3%.

In the case of `COc1ccc(F)c(-c2nc3c(o2)C(=O)c2ccccc2C3=O)c1`, the residual activity is 75% in assay [1], 31.2% in assay [2], 61.1% in assay [3] and 33.1% in assay [4].

For `COc1cc(F)cc(-c2nc3c(o2)C(=O)c2ccccc2C3=O)c1`, the residual activity in assay [1] worked out at 62.8%; in assay [2], 25.1%; in assay [3] it was 37.2%; in assay [4] it was 17.6%.

As for `O=C1c2ccccc2C(=O)c2oc(-c3cc(Cl)ccc3Cl)nc21`, the residual activity amounted to 52.7% in assay [1], 25.2% in assay [2], 44.5% in assay [3] and 32.2% in assay [4].

Regarding `O=C1c2ccccc2C(=O)c2oc(-c3ccc(Cl)cc3)nc21`, the residual activity amounted to 61.3% in assay [1], 34.2% in assay [2], 55.9% in assay [3] and 22.5% in assay [4].

As to `O=C1c2ccccc2C(=O)c2oc(-c3cccc(OCCN4CCOCC4)c3)nc21`, the residual activity in assay [1] is 82.1%; in assay [2], 47.2%; in assay [3], 80%; in assay [4] it was 44.3%.

Regarding `COc1cc(Cl)cc(-c2nc3c(o2)C(=O)c2ccccc2C3=O)c1`, the residual activity came out at 74.4% in assay [1], 40.7% in assay [2], 49% in assay [3] and 24% in assay [4].

Turning to `CN1CCN(CCOc2cccc(-c3nc4c(o3)C(=O)c3ccccc3C4=O)c2)CC1`, the residual activity turned out to be 66.8% in assay [1], 36.9% in assay [2], 76.4% in assay [3] and 53.6% in assay [4].

For the compound `O=C1c2ccccc2C(=O)c2oc(-c3c(F)cccc3F)nc21`, the residual activity in assay [1] was determined as 56.2%; in assay [2] it was 24%; in assay [3], 39.1%; in assay [4] it was 37.4%.

`COc1cc(F)cc(-c2nc3c([nH]2)C(=O)c2ccccc2C3=O)c1`: the residual activity in assay [1] amounted to 84.8%; in assay [2], 77.9%; in assay [3] it was 91.4%; in assay [4] it was 85.2%.

With `CN(C)CCOc1cccc(-c2nc3c(o2)C(=O)c2ccccc2C3=O)c1`, the residual activity in assay [1] is 66.7%; in assay [2], 28.7%; in assay [3], 60.4%; in assay [4] it was 31.7%.

`O=C1c2ccccc2C(=O)c2[nH]c(-c3ccccc3)nc21`: the residual activity in assay [1] is 84.3%; in assay [2] it was 78.3%; in assay [3], 92.5%; in assay [4] it was 92.5%.

Turning to `O=C1c2ccccc2C(=O)c2oc(-c3ccc([N+](=O)[O-])cc3)nc21`, the residual activity in assay [1] amounted to 36.1%; in assay [2], 16.3%; in assay [3], 20.2%; in assay [4], 9.3%.

For the compound `COc1ccc2c(c1)C(=O)c1nc(-c3cccc(OCCN(C)C)c3)[nH]c1C2=O`, the residual activity was 78.4% in assay [1], 77.2% in assay [2], 95.3% in assay [3] and 99.6% in assay [4].

`CN1CC[C@@H](Oc2ccc(-c3nc4c(o3)C(=O)c3ccccc3C4=O)c(Cl)c2)C1`: the residual activity was 70.9% in assay [1], 35.1% in assay [2], 58.9% in assay [3] and 34.7% in assay [4].

Take `COc1cc(OC)cc(-c2nc3c(o2)C(=O)c2ccccc2C3=O)c1`: the residual activity was 83.6% in assay [1], 48.1% in assay [2], 72.2% in assay [3] and 52.2% in assay [4].

On to `COc1cc(O[C@@H]2CCN(C)C2)cc(-c2nc3c(o2)C(=O)c2ccccc2C3=O)c1`, for which the residual activity in assay [1] amounted to 77.1%; in assay [2], 44.2%; in assay [3] it was 71.2%; in assay [4], 46.2%.

For `O=C1c2ccccc2C(=O)c2oc(-c3cccc(F)c3)nc21`, the residual activity was found to be 55.3% in assay [1], 26.3% in assay [2], 59.1% in assay [3] and 37.2% in assay [4].

For `Cc1ccccc1-c1nc2c(o1)C(=O)c1ccccc1C2=O`, the residual activity came to 66.4% in assay [1], 48.4% in assay [2], 63.6% in assay [3] and 38.1% in assay [4].

For the compound `CN1CC[C@@H](Oc2cccc(-c3nc4c(o3)C(=O)c3ccccc3C4=O)c2F)C1`, the residual activity in assay [1] came to 76.7%; in assay [2], 41.3%; in assay [3], 71.6%; in assay [4], 38.6%.

As to `CN1CC[C@H](Oc2cccc(-c3nc4c(o3)C(=O)c3ccccc3C4=O)c2)C1`, the residual activity in assay [1] worked out at 75.6%; in assay [2] it was 38.7%; in assay [3], 60.2%; in assay [4], 29.8%.

On to `COc1ccc(F)c(-c2nc3c(o2)C(=O)c2ccccc2C3=O)c1Cl`, for which the residual activity in assay [1] was determined as 23.3%; in assay [2], 20.5%; in assay [3], 41.5%; in assay [4] it was 23.6%.

As to `O=C1c2ccccc2C(=O)c2oc(-c3c(Cl)cccc3Cl)nc21`, the residual activity was 52.4% in assay [1], 21% in assay [2], 44.6% in assay [3] and 24.9% in assay [4].

On to `O=C1c2ccccc2C(=O)c2oc(-c3c(F)c(F)cc(F)c3F)nc21`, for which the residual activity in assay [1] turned out to be 39.4%; in assay [2], 14.1%; in assay [3], 38.3%; in assay [4], 24.1%.

As to `CN1CCN(CCOc2cc(-c3nc4c(o3)C(=O)c3ccccc3C4=O)ccc2Cl)CC1`, the residual activity was 75.9% in assay [1], 38.2% in assay [2], 82% in assay [3] and 50.9% in assay [4].

In the case of `COc1ccc(-c2nc3c(o2)C(=O)c2ccccc2C3=O)c(C(F)(F)F)c1`, the residual activity in assay [1] worked out at 84.9%; in assay [2], 41.7%; in assay [3], 80.5%; in assay [4], 18.6%.

Regarding `CN1CC[C@@H](Oc2cc(Cl)cc(-c3nc4c(o3)C(=O)c3ccccc3C4=O)c2)C1`, the residual activity is 75% in assay [1], 41.5% in assay [2], 59.3% in assay [3] and 34.2% in assay [4].

Turning to `Cc1ccc(-c2nc3c(o2)C(=O)c2ccccc2C3=O)cc1`, the residual activity was 66.9% in assay [1], 58.7% in assay [2], 58.6% in assay [3] and 44.6% in assay [4].

`O=C1c2ccccc2C(=O)c2oc(-c3ccc(C(F)(F)F)cc3)nc21`: the residual activity in assay [1] turned out to be 60.3%; in assay [2] it was 29%; in assay [3] it was 37.8%; in assay [4] it was 18.2%.

Take `Cc1ccc(F)c(-c2nc3c(o2)C(=O)c2ccccc2C3=O)c1F`: the residual activity is 53.7% in assay [1], 22.7% in assay [2], 62.1% in assay [3] and 30.5% in assay [4].

For the origin of these results see ChEMBL document CHEMBL5108067, “Discovery of Potent OTUB1/USP8 Dual Inhibitors Targeting Proteostasis in Non-Small-Cell Lung Cancer” (J Med Chem, 2022).
